Results: article PMC11357990, “A first-in-class selective inhibitor of EGFR and PI3K offers a single-molecule approach to targeting adaptive resistance” (Nature Cancer, 2024)
pIC50: −log10 of the molar value.

What was measured:
EGFR = EGFR (Homo sapiens, UniProt P00533); experiment: biochemical; set-up: Km ATP; Purified kinase inhibition, Z'-LYTE (HER, mTOR, DNA-PK) or Adapta (PI3K), ATP at Km apparent
Description: (§1) IC50 values were determined at a concentration of ATP corresponding to the Km apparent for that kinase.

mTOR = target: T1, mTOR (Homo sapiens, UniProt P42345); experiment: biochemical; set-up: Purified kinase inhibition, Z'-LYTE (HER, mTOR, DNA-PK) or Adapta (PI3K), ATP at Km apparent
T1 construct: Km ATP
Description: as §1

HER4 = target: T2, HER4 (Homo sapiens, UniProt Q15303); experiment: biochemical; set-up: Purified kinase inhibition, Z'-LYTE (HER, mTOR, DNA-PK) or Adapta (PI3K), ATP at Km apparent
T2 construct: gene ERBB4; Km ATP
T2 sequence (Q15303 whole entry): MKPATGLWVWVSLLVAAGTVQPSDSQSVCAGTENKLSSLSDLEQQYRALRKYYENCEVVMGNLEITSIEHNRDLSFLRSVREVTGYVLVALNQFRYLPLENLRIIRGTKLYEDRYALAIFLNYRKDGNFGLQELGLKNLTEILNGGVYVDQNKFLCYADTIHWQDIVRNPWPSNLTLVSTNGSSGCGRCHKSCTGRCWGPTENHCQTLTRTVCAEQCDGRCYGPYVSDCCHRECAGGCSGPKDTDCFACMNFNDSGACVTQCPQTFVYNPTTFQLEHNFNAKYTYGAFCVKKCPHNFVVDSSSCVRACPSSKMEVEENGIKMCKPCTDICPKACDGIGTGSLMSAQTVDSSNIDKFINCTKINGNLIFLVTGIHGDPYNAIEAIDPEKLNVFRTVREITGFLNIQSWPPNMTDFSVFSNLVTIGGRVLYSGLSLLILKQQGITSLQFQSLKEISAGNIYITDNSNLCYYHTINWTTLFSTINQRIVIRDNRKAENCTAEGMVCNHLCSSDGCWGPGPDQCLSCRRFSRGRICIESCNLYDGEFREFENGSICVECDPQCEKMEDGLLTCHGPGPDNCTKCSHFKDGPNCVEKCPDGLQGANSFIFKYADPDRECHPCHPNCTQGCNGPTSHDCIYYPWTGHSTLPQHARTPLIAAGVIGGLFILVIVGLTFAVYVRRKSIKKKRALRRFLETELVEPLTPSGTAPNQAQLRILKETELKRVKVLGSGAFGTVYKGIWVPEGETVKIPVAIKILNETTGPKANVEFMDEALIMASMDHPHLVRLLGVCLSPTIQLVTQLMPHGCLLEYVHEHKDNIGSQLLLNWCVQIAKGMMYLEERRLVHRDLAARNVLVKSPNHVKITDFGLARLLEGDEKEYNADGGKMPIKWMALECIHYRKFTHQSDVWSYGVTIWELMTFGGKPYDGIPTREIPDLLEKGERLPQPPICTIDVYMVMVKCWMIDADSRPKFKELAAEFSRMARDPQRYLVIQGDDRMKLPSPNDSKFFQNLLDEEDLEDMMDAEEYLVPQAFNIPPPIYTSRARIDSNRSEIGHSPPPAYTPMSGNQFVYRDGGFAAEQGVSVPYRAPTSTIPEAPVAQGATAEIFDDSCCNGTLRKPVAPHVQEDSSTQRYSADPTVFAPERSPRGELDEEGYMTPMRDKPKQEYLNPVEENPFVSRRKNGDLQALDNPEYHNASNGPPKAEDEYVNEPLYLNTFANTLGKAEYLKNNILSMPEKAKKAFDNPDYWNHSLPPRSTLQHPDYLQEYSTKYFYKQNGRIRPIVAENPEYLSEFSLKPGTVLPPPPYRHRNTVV
Description: as §1

HER2 = target: T3, HER2 (Homo sapiens, UniProt P04626); experiment: biochemical; set-up: Purified kinase inhibition, Z'-LYTE (HER, mTOR, DNA-PK) or Adapta (PI3K), ATP at Km apparent
T3 construct: gene ERBB2; Km ATP
T3 sequence (P04626 whole entry): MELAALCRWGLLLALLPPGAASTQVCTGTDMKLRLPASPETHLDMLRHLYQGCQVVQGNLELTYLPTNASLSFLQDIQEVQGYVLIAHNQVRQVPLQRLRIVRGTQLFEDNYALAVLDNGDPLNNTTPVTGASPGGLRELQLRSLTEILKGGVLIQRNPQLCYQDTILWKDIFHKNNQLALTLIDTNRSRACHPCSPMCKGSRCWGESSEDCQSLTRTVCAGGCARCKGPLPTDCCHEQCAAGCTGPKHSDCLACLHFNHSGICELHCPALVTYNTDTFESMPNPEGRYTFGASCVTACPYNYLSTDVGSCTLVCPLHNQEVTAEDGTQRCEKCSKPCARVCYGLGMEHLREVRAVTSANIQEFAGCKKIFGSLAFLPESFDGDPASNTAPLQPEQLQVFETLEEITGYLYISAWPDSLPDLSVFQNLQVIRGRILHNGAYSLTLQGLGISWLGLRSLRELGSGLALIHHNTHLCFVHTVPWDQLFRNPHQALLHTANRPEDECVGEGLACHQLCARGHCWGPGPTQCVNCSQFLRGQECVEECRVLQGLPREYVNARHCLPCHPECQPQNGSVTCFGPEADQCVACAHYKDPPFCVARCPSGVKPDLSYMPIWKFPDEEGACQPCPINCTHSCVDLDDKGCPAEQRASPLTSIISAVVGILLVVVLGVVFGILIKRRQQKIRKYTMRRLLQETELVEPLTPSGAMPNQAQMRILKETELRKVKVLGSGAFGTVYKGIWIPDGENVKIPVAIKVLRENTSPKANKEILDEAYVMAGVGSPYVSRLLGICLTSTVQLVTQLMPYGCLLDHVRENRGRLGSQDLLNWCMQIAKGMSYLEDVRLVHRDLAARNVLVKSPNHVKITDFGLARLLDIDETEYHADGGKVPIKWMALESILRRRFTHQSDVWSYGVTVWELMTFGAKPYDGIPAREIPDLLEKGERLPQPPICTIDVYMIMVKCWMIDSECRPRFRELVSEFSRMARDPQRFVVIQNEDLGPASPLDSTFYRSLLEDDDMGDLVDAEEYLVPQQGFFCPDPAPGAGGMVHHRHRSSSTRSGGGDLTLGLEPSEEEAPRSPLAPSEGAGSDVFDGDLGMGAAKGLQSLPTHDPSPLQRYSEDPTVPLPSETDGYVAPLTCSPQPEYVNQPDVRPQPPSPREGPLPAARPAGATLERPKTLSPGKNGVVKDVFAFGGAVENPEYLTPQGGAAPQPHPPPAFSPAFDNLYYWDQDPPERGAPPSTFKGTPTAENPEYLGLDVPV
Description: as §1

PI3Kδ = target: T4, PI3Kδ (Homo sapiens, UniProt O00329); experiment: biochemical; set-up: Purified kinase inhibition, Z'-LYTE (HER, mTOR, DNA-PK) or Adapta (PI3K), ATP at Km apparent
T4 construct: gene PIK3CD; Km ATP
Description: as §1

PI3Kβ = target: T5, PI3Kβ (Homo sapiens, UniProt P42338); experiment: biochemical; set-up: Purified kinase inhibition, Z'-LYTE (HER, mTOR, DNA-PK) or Adapta (PI3K), ATP at Km apparent
T5 construct: gene PIK3CB; Km ATP
Description: as §1

PI3Kγ [1] = target: T6, PI3Kγ (Homo sapiens, UniProt P48736); experiment: biochemical; set-up: gene PIK3CG; Km ATP; Purified kinase inhibition, Z'-LYTE (HER, mTOR, DNA-PK) or Adapta (PI3K), ATP at Km apparent
T6 sequence (P48736 whole entry): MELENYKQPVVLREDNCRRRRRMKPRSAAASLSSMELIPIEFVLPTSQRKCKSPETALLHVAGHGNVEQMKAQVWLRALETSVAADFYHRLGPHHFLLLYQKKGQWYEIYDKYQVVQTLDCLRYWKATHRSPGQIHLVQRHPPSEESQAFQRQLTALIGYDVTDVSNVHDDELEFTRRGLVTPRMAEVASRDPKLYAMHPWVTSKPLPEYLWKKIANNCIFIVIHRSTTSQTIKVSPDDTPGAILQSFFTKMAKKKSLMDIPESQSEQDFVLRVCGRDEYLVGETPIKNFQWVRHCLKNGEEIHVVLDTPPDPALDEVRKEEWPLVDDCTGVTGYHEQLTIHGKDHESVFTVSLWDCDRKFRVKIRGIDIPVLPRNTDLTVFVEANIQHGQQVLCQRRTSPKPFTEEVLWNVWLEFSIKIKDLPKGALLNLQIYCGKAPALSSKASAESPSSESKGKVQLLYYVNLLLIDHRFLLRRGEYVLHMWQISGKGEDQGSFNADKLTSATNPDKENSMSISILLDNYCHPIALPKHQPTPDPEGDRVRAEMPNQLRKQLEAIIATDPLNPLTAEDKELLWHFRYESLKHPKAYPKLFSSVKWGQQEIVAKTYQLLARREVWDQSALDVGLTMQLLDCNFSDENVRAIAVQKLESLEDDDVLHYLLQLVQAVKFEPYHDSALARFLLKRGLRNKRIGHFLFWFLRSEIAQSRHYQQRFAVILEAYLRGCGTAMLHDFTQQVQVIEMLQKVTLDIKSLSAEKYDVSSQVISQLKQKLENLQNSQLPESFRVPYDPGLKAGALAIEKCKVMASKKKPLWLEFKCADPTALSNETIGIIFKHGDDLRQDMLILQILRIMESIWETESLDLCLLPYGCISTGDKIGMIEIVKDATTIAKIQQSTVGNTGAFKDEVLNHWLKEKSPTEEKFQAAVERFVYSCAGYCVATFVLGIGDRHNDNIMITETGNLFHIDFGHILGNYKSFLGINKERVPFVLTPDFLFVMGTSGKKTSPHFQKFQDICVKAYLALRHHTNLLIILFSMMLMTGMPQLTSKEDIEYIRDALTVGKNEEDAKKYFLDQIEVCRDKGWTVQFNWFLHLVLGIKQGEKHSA
Description: as §1

PI3Kα = PI3Kα (Homo sapiens, UniProt P42336); experiment: biochemical; set-up: gene PIK3CA; Km ATP; Purified kinase inhibition, Z'-LYTE (HER, mTOR, DNA-PK) or Adapta (PI3K), ATP at Km apparent
Description: as §1

PI3Kγ [2] = target: T6, PI3Kγ; experiment: biochemical kinase assay at ATP Km apparent; set-up: gene PIK3CG

Sequence of EGFR (P00533 whole entry): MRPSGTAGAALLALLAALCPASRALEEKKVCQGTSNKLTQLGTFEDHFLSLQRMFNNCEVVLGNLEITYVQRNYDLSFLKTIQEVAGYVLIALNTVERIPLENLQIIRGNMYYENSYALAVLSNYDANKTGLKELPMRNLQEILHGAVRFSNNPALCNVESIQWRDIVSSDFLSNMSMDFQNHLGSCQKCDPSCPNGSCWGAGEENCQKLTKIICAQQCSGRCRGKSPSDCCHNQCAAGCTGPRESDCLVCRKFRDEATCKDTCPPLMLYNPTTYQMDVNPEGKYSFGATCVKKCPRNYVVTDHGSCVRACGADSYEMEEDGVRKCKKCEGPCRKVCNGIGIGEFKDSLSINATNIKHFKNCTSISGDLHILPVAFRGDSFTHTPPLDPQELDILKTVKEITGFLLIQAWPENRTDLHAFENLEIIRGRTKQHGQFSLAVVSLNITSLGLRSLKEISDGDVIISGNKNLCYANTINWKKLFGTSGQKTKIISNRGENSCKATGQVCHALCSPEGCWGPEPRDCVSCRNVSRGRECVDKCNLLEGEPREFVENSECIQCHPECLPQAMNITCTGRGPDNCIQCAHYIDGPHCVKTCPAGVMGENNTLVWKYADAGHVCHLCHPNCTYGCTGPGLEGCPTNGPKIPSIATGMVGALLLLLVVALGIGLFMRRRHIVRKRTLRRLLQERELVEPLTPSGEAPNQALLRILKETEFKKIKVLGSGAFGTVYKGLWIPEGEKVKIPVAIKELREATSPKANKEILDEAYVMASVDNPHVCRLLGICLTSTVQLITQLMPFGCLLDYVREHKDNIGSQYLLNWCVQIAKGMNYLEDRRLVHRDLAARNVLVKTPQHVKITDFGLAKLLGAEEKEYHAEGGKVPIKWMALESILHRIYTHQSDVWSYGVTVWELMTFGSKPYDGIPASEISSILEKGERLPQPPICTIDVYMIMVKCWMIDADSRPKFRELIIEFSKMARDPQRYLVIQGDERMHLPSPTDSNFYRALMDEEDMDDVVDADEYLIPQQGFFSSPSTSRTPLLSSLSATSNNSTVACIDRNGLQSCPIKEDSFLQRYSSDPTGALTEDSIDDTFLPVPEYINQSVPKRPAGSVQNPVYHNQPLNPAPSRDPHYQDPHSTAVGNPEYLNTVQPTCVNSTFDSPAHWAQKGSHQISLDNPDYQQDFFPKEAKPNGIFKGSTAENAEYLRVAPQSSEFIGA

Cc1nc(NC(=O)N2CCC[C@H]2C(N)=O)sc1-c1ccnc(C(C)(C)C(F)(F)F)c1 [Alpelisib]
pIC50 (EGFR): < 5.00 | pIC50 (mTOR): 5.53 | pIC50 (HER4): < 5.00 | pIC50 (HER2): < 5.00

COc1c(OCCCN2CCOCC2)ccc2c1N=C(NC(=O)c1cnc(N)nc1)N1CCN=C21 [Copanlisib]
pIC50 (EGFR): < 5.00 | pIC50 (mTOR): 7.73 | pIC50 (HER4): < 5.00 | pIC50 (HER2): < 5.00

CCN1CCN(Cc2ccc(-c3cc4c(N[C@H](C)c5ccccc5)ncnc4[nH]3)cc2)CC1 [NVP-AEE788]
pIC50 (PI3Kδ): < 5.00 | pIC50 (PI3Kβ): < 5.00 | pIC50 (mTOR): < 5.00 | pIC50 (HER4): 6.66 | pIC50 (HER2): 7.58 | pIC50 (PI3Kγ [1]): < 5.00 | pIC50 (PI3Kα): < 5.00

COc1ncc(-c2ccc3nccc(-c4ccnnc4)c3c2)cc1NS(=O)(=O)c1ccc(F)cc1F [Omipalisib]
pIC50 (PI3Kγ [2]): 9.21 | pIC50 (EGFR): < 5.00 | pIC50 (HER4): < 5.00 | pIC50 (HER2): < 5.00
